Reference: patent publication US9556205B2, “Fungicide N-[(trisubstitutedsilyl)methyl]-carboxamide derivatives” (BAYER INTELLECTUAL PROPERTY GMBH, priority 2010, dated 2017)

Tests used:
Alternaria solani = experiment: In vivo preventive test on Alternaria solani (tomato); conditions: 500 ppm of active ingredient, evaluated 7 days after inoculation
Procedure: Solvent: 49 parts by weight of N,N-dimethylformamide Emulsifier: 1 part by weight of Alkylarylpolyglycolether To produce a suitable preparation of active compound, 1 part by weight of active compound is mixed with the stated amounts of solvent and emulsifier, and the concentrate is diluted with water to the desired concentration. To test for preventive activity, young plants are sprayed with the preparation of active compound at the stated rate of application. One day after this treatment, the plants are inoculated with an aqueous spore suspension of Alternaria solani. […] Then the plants are placed in an incubation cabinet at approximately 20° C. and a relative atmospheric humidity of 96%.

Pyrenophora teres = experiment: In vivo preventive test on Pyrenophora teres (barley), Example F; conditions: 500 ppm of active ingredient, evaluated 7-9 days after inoculation
Procedure: Solvent: 49 parts by weight of N,N-dimethylformamide Emulsifier: 1 part by weight of alkylaryl polyglycol ether To produce a suitable preparation of active compound, 1 part by weight of active compound is mixed with the stated amounts of solvent and emulsifier, and the concentrate is diluted with water to the desired concentration. To test for preventive activity, young plants are sprayed with the preparation of active compound at the stated rate of application. One day after this treatment, the plants are inoculated with an aqueous spore suspension of Pyrenophora teres. […] Then the plants are placed in a greenhouse at a temperature of approximately 20° C. and a relative atmospheric humidity of approximately 80%.

[1] = log P by HPLC on reversed-phase column (C18), EEC Directive 79/831 Annex V.A8; assay type: physicochemical; conditions: 40° C., 0.1% aqueous formic acid and acetonitrile, linear gradient 10% to 90% acetonitrile
Procedure: In table 1, the log P values were determined in accordance with EEC Directive 79/831 Annex V.A8 by HPLC (High Performance Liquid Chromatography) on a reversed-phase column (C18), using the method described below:
Temperature: 40° C.; Mobile phases: 0.1% aqueous formic acid and acetonitrile; linear gradient from 10% acetonitrile to 90% acetonitrile.
Calibration was carried out using unbranched alkan-2-ones (comprising 3 to 16 carbon atoms) with known log P values (determination of the log P values by the retention times using linear interpolation between two successive alkanones). lambda-max-values were determined using UV-spectra from 200 nm to 400 nm and the peak values of the chromatographic signals.

[2] = tested on: Aflatoxins production by Aspergillus parasiticus; assay type: cell-based
Aspergillus parasiticus = assay type: cell-based; conditions: 7 days at 20° C., OD620nm

| Compound | Efficacy (Alternaria solani) [%] | Efficacy (Pyrenophora teres) [%] | logP [1] | % Inhibition of Aflatoxin at 50 μM [2] [%] | % Inhibition of fungal growth at 50 μM (Aspergillus parasiticus) [%] | chromatographic logP [1] |
| --- | --- | --- | --- | --- | --- | --- |
| Cn1nc(C(F)F)c(C(=S)N(C[Si](C)(C)Cc2ccccc2Cl)C2CC2)c1F [Example 62] | 80 | 100 | 5.00 |  |  |  |
| Cn1cc(C(=O)NC[Si](C)(C)c2cc(Cl)cc(Cl)c2)c(C(F)F)c1 [Example 45] |  |  | 4.11 |  |  |  |
| Cc1cc(C(=O)NC[Si](C)(C)c2ccc(Cl)cc2Cl)c(C)o1 [Example 33] |  |  | 4.46 |  |  |  |
| Cn1nc(C(F)F)c(C(=O)N(C[Si](C)(C)c2ccsc2)C2CC2)c1Cl [Example 75] | 94 | 100 | 3.71 | 100 | 100 |  |
| Cn1cc(C(=O)NC[Si](C)(C)c2cccc(Cl)c2)c(C(F)F)c1 [Example 24] |  |  | 3.58 |  |  |  |
| Cn1nc(C(F)F)c(C(=O)N(C[Si](C)(C)c2ccsc2)C2CC2)c1F [Example 76] | 94 | 100 | 3.55 | 100 | 100 |  |
| Cc1cc(C(=O)N(C[Si](C)(C)c2cccc(Cl)c2)C2CC2)c(C)o1 [Example 29] | 94 | 95 | 4.78 |  |  |  |
| Cn1nc(C(F)F)c(C(=O)NC[Si](C)(C)c2ccc(Cl)cc2Cl)c1F [Example 36] | 100 | 100 | 4.06 | 100 | 84 |  |
| Cc1cc(C(=O)N(C[Si](C)(C)c2cc(Cl)cc(Cl)c2)C2CC2)c(C)o1 [Example 50] | 100 | 95 | 5.51 |  |  |  |
| Cn1nc(C(F)F)c(C(=O)N(C[Si](C)(C)Cc2cccc(Cl)c2)C2CC2)c1Cl [Example 65] | 95 | 100 | 4.59 | 82 | 72 |  |
| Cc1cc(C(=O)N(C[Si](C)(C)c2ccccc2Cl)C2CC2)c(C)o1 [Example 22] | 95 | 80 | 4.74 |  |  |  |
| Cc1cc(C(=O)NC[Si](C)(C)c2cc(Cl)cc(Cl)c2)c(C)o1 [Example 44] |  |  | 4.54 |  |  |  |
| Cn1nc(C(F)F)c(C(=O)NC[Si](C)(C)c2cc(Cl)cc(Cl)c2)c1F [Example 47] | 100 | 95 | 4.08 | 100 | 100 |  |
| C[Si](C)(CN(C(=O)c1ccsc1I)C1CC1)c1ccc2ccccc2c1 [Example 78] |  |  | 5.17 |  |  |  |
| Cn1nc(C(F)F)c(C(=O)NC[Si](C)(C)c2cccc(Cl)c2)c1Cl [Example 25] | 100 | 100 | 3.71 | 99 | 84 |  |
| Cn1cc(C(=O)N(C[Si](C)(C)Cc2ccc(Cl)cc2Cl)C2CC2)c(C(F)F)c1 [Example 68] | 70 |  | 5.19 |  |  |  |
| Cn1nc(C(F)F)c(C(=S)N(C[Si](C)(C)Cc2ccc(Cl)cc2Cl)C2CC2)c1F [Example 71] | 95 | 100 | 5.57 |  |  |  |
| N-cyclohexyl-N-{[dimethyl(phenyl)silyl]methyl}-2-furamide [Example 5] |  |  | 3.73 |  |  |  |
| Cn1nc(C(F)F)c(C(=O)N(C[Si](C)(C)Cc2cc(Cl)cc(Cl)c2)C2CC2)c1Cl [Example 67] | 78 |  | 5.14 | 100 | 86 |  |
| Cn1nc(C(F)F)c(C(=O)NC[Si](C)(C)c2cccc(Cl)c2)c1F [Example 26] | 100 | 100 | 3.55 | 100 | 100 |  |
| Cn1nc(C(F)F)c(C(=S)NC[Si](C)(C)c2ccc(Cl)cc2Cl)c1F [Example 37] |  |  | 4.74 |  |  |  |
| Cc1cc(C(=O)N(C[Si](C)(C)Cc2cccc(Cl)c2)C2CC2)c(C)o1 [Example 63] | 70 |  | 5.11 |  |  |  |
| Cn1nc(C(F)F)c(C(=S)NC[Si](C)(C)c2ccccc2Cl)c1F [Example 16] | 70 |  | 4.11 |  |  |  |
| Cc1cc(C(=O)N(C[Si](C)(C)Cc2ccccc2Cl)C2CC2)c(C)o1 [Example 58] |  |  | 5.08 |  |  |  |

| Compound | Efficacy (Alternaria solani) [%] | Efficacy (Pyrenophora teres) [%] | logP [1] | % Inhibition of Aflatoxin at 50 μM [2] [%] | % Inhibition of fungal growth at 50 μM (Aspergillus parasiticus) [%] | chromatographic logP [1] |
| --- | --- | --- | --- | --- | --- | --- |
| Cn1nc(C(F)F)c(C(=O)N(C[Si](C)(C)c2ccc3ccccc3c2)C2CC2)c1F [Example 74] | 100 | 100 | 4.36 | 100 | 100 |  |
| Cn1nc(C(F)F)c(C(=O)N(C[Si](C)(C)c2ccc3ccccc3c2)C2CC2)c1Cl [Example 77] |  |  | 4.51 |  |  |  |
| Cn1nc(C(F)F)c(C(=O)N(C[Si](C)(C)Cc2ccccc2Cl)C2CC2)c1F [Example 61] | 100 | 100 | 4.41 | 100 | 100 |  |
| Cn1nc(C(F)F)c(C(=O)N(C[Si](C)(C)Cc2ccc(Cl)cc2Cl)C2CC2)c1F [Example 70] | 100 | 100 | 5.03 | 100 | 100 |  |
| Cn1cc(C(=O)N(C[Si](C)(C)Cc2cccc(Cl)c2)C2CC2)c(C(F)F)c1 [Example 64] |  |  | 4.62 |  |  |  |
| Cn1nc(C(F)F)c(C(=O)NC[Si](C)(C)c2cc(Cl)cc(Cl)c2)c1Cl [Example 46] | 95 | 100 | 4.27 | 99 | 84 |  |
| Cc1nc(C(F)F)c(C(=O)N(C[Si](C)(C)c2ccc(Cl)cc2Cl)C2CC2)s1 [Example 43] | 100 | 100 | 5.00 |  |  |  |
| Cn1nc(C(F)F)c(C(=O)N(C[Si](C)(C)Cc2ccccc2Cl)C2CC2)c1Cl [Example 60] | 95 | 95 | 4.56 | 100 | 84 |  |
| Cn1nc(C(F)F)c(C(=O)N(C[Si](C)(C)Cc2ccc(Cl)cc2Cl)C2CC2)c1Cl [Example 69] | 100 | 100 | 5.19 | 100 | 85 |  |
| Cn1nc(C(F)F)c(C(=O)NC[Si](C)(C)c2ccc(Cl)cc2Cl)c1Cl [Example 35] | 90 |  | 4.25 |  |  |  |
| Cn1nc(C(F)F)c(C(=S)N(C[Si](C)(C)Cc2ccccc2)C2CC2)c1F [Example 57] | 95 |  | 4.67 |  |  |  |
| Cc1cc(C(=O)N(C[Si](C)(C)Cc2ccc(Cl)cc2Cl)C2CC2)c(C)o1 [Example 73] |  |  | 5.78 |  |  |  |
| Cn1nc(C(F)F)c(C(=O)N(C[Si](C)(C)Cc2cc(Cl)cc(Cl)c2)C2CC2)c1F [Example 72] | 89 |  | 4.98 | 100 | 100 |  |
| Cc1nc(C(F)F)c(C(=O)N(C[Si](C)(C)c2cc(Cl)cc(Cl)c2)C2CC2)s1 [Example 53] | 80 | 95 | 4.92 |  |  |  |
| Cc1cc(C(=O)NC[Si](C)(C)c2ccccc2Cl)c(C)o1 [Example 13] |  |  | 3.85 |  |  |  |
| Cc1cc(C(=O)NC[Si](C)(C)c2cccc(Cl)c2)c(C)o1 [Example 23] |  |  | 3.92 |  |  |  |
| Cn1nc(C(F)F)c(C(=O)N(C[Si](C)(C)Cc2ccccc2)C2CC2)c1Cl [Example 54] | 95 | 100 | 4.20 |  |  |  |
| Cn1cc(C(=O)NC[Si](C)(C)c2ccc(Cl)cc2Cl)c(C(F)F)c1 [Example 34] |  |  | 4.06 |  |  |  |
| Cn1cc(C(=O)N(C[Si](C)(C)Cc2ccccc2Cl)C2CC2)c(C(F)F)c1 [Example 59] |  | 70 | 4.56 |  |  |  |
| Cc1cc(C(=O)N(C[Si](C)(C)Cc2ccccc2)C2CC2)c(C)o1 [Example 56] |  |  | 4.67 |  |  |  |
| Cc1cc(C(=O)NC[Si](C)(C)c2ccccc2)c(C)o1 [Example 3] |  |  | 3.48 |  |  |  |
| Cn1nc(C(F)F)c(C(=O)NC[Si](C)(C)c2ccccc2Cl)c1Cl [Example 14] |  |  | 3.69 |  |  |  |
| Cc1nn(C)c(F)c1C(=O)N(C[Si](C)(C)c1ccccc1)C1CC1 [Example 8, N-cyclopropyl-N-{[dimethyl(phenyl)silyl]methyl}-5-fluoro-1,3-dimethyl-1H-pyrazole-4-carboxamide] |  |  |  |  |  | 3.19 |
